Laboratory results published in patent publication US20030176327A1 (priority 2001, published 2003).
Counter-ions that a name gives are not always drawn.

Tests used:
Bacillus anthracis = format: cell-based
Yersinia Pestis = format: cell-based
Francisella tularensis = format: cell-based
Clostridium botulinin = format: cell-based
Clostridium perfringens = format: cell-based
[1] = test system: Brucella abortis, B milletensis and B suis; format: cell-based
Burkholderia mallei = format: cell-based
B anthracis = settings: cited from earlier work
anthrax infection = settings: in vivo; cited from earlier work

Compound	Suitability against Bacillus anthracis (Bacillus anthracis)	Suitability against Yersinia Pestis (Yersinia Pestis)	Suitability against Francisella tularensis (Francisella tularensis)	Suitability against Clostridium botulinin (Clostridium botulinin)	Suitability against Clostridium perfringens (Clostridium perfringens)	Suitability against Brucella abortis, B milletensis and B suis [1]	Suitability against Burkholderia mallei (Burkholderia mallei)	Effective against B anthracis in vitro (B anthracis)	Efficacy in treatment of anthrax infection, animal models (anthrax infection)	Sensitivity of naturally occurring anthrax strains (B anthracis)
CC1=C(C(=O)O)N2C(=O)[C@@H](NC(=O)[C@H](N)c3ccccc3)[C@H]2SC1 [Cephalexin Monohydrate]	Yes	Yes	Yes	No	No	No	No	–	–	–
CC(=O)OCC1=C(C(=O)O)N2C(=O)[C@@H](NC(=O)Cc3cccs3)[C@H]2SC1 [Cephalothin]	Yes	Yes	Yes	No	No	No	No	–	–	–
O=C(N[C@H](CO)[C@H](O)c1ccc([N+](=O)[O-])cc1)C(Cl)Cl [chloramphenicol]	–	–	–	–	–	–	–	effective	–	–
CO/N=C(\C(=O)N[C@@H]1C(=O)N2C(C(=O)O)=C(COC(N)=O)CS[C@H]12)c1ccco1 [Cefuroxime]	Yes	Yes	Yes	No	No	No	No	–	–	–
CCn1nc(C(=O)O)c(=O)c2cc3c(cc21)OCO3 [Cinoxacin]	Yes	Yes	Yes	No	No	No	No	–	–	–
N[C@@H](C(=O)N[C@@H]1C(=O)N2C(C(=O)O)=C(Cl)CS[C@H]12)c1ccccc1 [Cefaclor, 3-chloro-7-D-(2-phenylglycinamido)-3-cephem-4-carboxylic acid monohydrate]	Yes	Yes	Yes	No	No	No	No	–	–	–
NC[C@H]1O[C@H](O[C@H]2[C@H](O)[C@@H](O[C@H]3O[C@H](CO)[C@@H](O)[C@H](N)[C@H]3O)[C@H](N)C[C@@H]2N)[C@H](N)C[C@@H]1O [Tobramycin]	Yes	Yes	Yes	No	No	Yes	Yes	–	–	–
CCCCCCCCCC(=O)N[C@@H](Cc1c[nH]c2ccccc12)C(=O)N[C@H](CC(N)=O)C(=O)N[C@@H](CC(=O)O)C(=O)N[C@@H]1C(=O)NCC(=O)N[C@@H](CCCN)C(=O)N[C@@H](CC(=O)O)C(=O)N[C@H](C)C(=O)N[C@@H](CC(=O)O)C(=O)NCC(=O)N[C@H](CO)C(=O)N[C@@H]([C@H](C)CC(=O)O)C(=O)N[C@@H](CC(=O)c2ccccc2N)C(=O)O[C@@H]1C [Daptomycin, N-(1-oxodecyl)-L-tryptophyl-L-asparaginyl-L-A-aspartyl-L-threonylglycyl-L-ornithyl-L-A-aspartyl-D-alanyl-L-A-aspartylglycyl-D-seryl-threo-3-methyl-L-A-glutamyl-G-(2-aminophenyl)-G-oxo-L-A-aminobutanoicacid, E1-lactone]	Yes	No	No	Yes*	Yes**	No	No	–	–	–
Cc1nnc(SCC2=C(C(=O)O)N3C(=O)[C@@H](NC(=O)Cn4cnnn4)[C@H]3SC2)s1 [Cefazolin]	Yes	Yes	Yes	–	–	No	No	effective	–	–
O=C(O)c1cn(C2CC2)c2cc(N3CCNCC3)c(F)cc2c1=O [ciprofloxacin]	–	–	–	–	–	–	–	–	excellent efficacy	–
CN[C@H](CC(C)C)C(=O)N[C@H]1C(=O)N[C@@H](CC(N)=O)C(=O)N[C@H]2C(=O)N[C@H]3C(=O)N[C@H](C(=O)N[C@H](C(=O)O)c4cc(O)cc(O)c4-c4cc3ccc4O)[C@H](O[C@H]3C[C@](C)(N)[C@@H](O)[C@H](C)O3)c3ccc(c(Cl)c3)Oc3cc2cc(c3O[C@@H]2O[C@H](CO)[C@@H](O)[C@H](O)[C@H]2O[C@H]2C[C@](C)(NCc3ccc(-c4ccc(Cl)cc4)cc3)[C@@H](O)[C@H](C)O2)Oc2ccc(cc2Cl)[C@H]1O [Oritavancin, (4″R)-22-O-(3-amino-2,3,6-trideoxy-3-C-methyl-A-L-arabino-hexopyranosyl)-N3″-((4-chloro(1,1′-biphenyl)-4′-yl)methyl)vancomycin]	Yes	No	No	Yes*	Yes**	No	No	–	–	–
Cn1nnnc1SCC1=C(C(=O)O)N2C(=O)[C@@H](NC(=O)[C@H](O)c3ccccc3)[C@H]2SC1 [Cefamandole]	Yes	Yes	Yes	No	No	No	No	–	–	–
CN[C@H](CC(C)C)C(=O)N[C@H]1C(=O)N[C@@H](CC(N)=O)C(=O)N[C@H]2C(=O)N[C@H]3C(=O)N[C@H](C(=O)N[C@H](C(=O)O)c4cc(O)cc(O)c4-c4cc3ccc4O)[C@H](O)c3ccc(c(Cl)c3)Oc3cc2cc(c3O[C@@H]2O[C@H](CO)[C@@H](O)[C@H](O)[C@H]2O[C@H]2C[C@](C)(N)[C@H](O)[C@H](C)O2)Oc2ccc(cc2Cl)[C@H]1O [Vancomycin HCl]	Yes	No	No	Yes*	Yes**	No	No	effective	–	–
penicillin	–	–	–	–	–	–	–	–	–	sensitive
CC[C@H]1OC(=O)[C@H](C)[C@@H](O[C@H]2C[C@@](C)(OC)[C@@H](O)[C@H](C)O2)[C@H](C)[C@@H](O[C@@H]2O[C@H](C)C[C@H](N(C)C)[C@H]2O)[C@](C)(O)C[C@@H](C)C(=O)[C@H](C)[C@@H](O)[C@]1(C)O [erythromycin]	–	–	–	–	–	–	–	effective	–	–
N[C@@H](C(=O)N[C@@H]1C(=O)N2C(C(=O)O)=C(Cl)CC[C@H]12)c1ccccc1.O [Loracarbef, (6R,7S)-7-[(R)-2-amino-2-phenylacetamido]-3-chloro-8-oxo-1-azabicyclo[4.2.0]oct-2-ene-2-carboxylic acid, monohydrate]	Yes	Yes	Yes	No	No	No	No	–	–	–
